Holding throughout (type): functional
Assay [1] has as its system Mus musculus. Briefly: In vivo activity against P388 lymphocytic leukemia, and the maximum T/C values were reported. T/C >=125 is considered active.
Assay [2] is filed under the species Mus musculus. Briefly: Optimal dose required for activity against P388 lymphocytic leukemia.
Assay [3] is filed under the species Mus musculus. The experiment in a line: Optimal dose required for activity against P388 lymphocytic leukemia.

13 molecules from ChEMBL document CHEMBL1123110, “Bicyclic and tricyclic analogues of anthramycin” (1985) can be followed below.

`C/C=C1\C[C@H]2[C@@H](OC)Nc3cc(O)c(OC)cc3C(=O)N2C1`: the “Max T/C” value in assay [1] is given as 188. The same molecule gave an OD in assay [2] of 0.2 mg/kg.
For `C/C=C/CN1CC=Nc2c(O)cccc2C1=O` the same measures were 138 and 20 mg/kg.
For `O=C1c2ccccc2N=CC2CCCN12` (stereo unspecified) the same measures were 133 and 8 mg/kg.
For `COc1cc2c(cc1O)N[C@H](OC)[C@@H]1CC(O)CN1C2=O` (stereo partly specified) the same measures were 144 and 6.4 mg/kg.
As to `O=C1c2cccc(O)c2N=CCN1Cc1ccccc1`, the “Max T/C” value in assay [1] came out at 100. This molecule had an OD in assay [2] of 16 mg/kg.
For `COC(=O)/C=C1/C[C@H]2[C@@H](S(=O)(=O)[O-])Nc3cc(O)c(OC)cc3C(=O)N2C1.[Na+]` the same measures were 131 and 6 mg/kg.
`CCOC(=O)CN1CC=Nc2c(O)cccc2C1=O`: the “Max T/C” value in assay [1] amounted to 106. Moreover, the OD in assay [2] is 40 mg/kg.
`CN1CC=Nc2c(O)cccc2C1=O`: the “Max T/C” value in assay [1] was 122. In assay [2], this molecule yielded an OD of 16 mg/kg.
For `O=C1NCC=Nc2c(O)cccc21` the same measures were 125 and 16 mg/kg.
For `COc1cc2c(cc1O)N[C@@H](OC)[C@@H]1CC(O)CN1C2=O` (stereo partly specified) the same measures were 100 and 16 mg/kg.
For `C=CCN1CC=Nc2c(O)cccc2C1=O` the same measures were 117 and 80 mg/kg.
Turning to `C#CCN1CC=Nc2c(O)cccc2C1=O`, the “Max T/C” value in assay [1] is on record as 162. In addition, the OD in assay [2] worked out at 16 mg/kg.
For `COc1cc2c(cc1OC(C)=O)N[C@H](OC)[C@@H]1CC(OC(C)=O)CN1C2=O` (stereo partly specified), in assay [1], the “Max T/C” value was 100. In addition, the OD in assay [3] was 16 mg/kg.
